According to patent publication US11214594B2, “Antimicrobial peptide having synergistic antibacterial effect with antibiotics on multidrug resistant bacteria, and use thereof” (priority 2016, dated 2022):
≈ marks a conversion by molar mass, not a printed value. Where a SMILES comes first, the peptide text is derived from it. [ ]: non-standard residue; d: D form.

What was measured:
[1] = tested on: E. coli; experiment: microbe, parasite or virus in culture; format: cell-based, Escherichia coli; conditions: 16 h
Procedure, shortened: (§1)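 Peptides were serially diluted twofold in Mueller-Hinton medium and combined 1:1 with bacterial suspensions prepared at 2×10^6 CFU. Readout was the minimal inhibitory concentration, i.e. the lowest concentration with no growth.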

[2] = tested on: MDREC 1229; experiment: microbe, parasite or virus in culture; format: cell-based, Escherichia coli
Procedure, shortened: as §1

[3] = tested on: MDREC 1238; format: cell-based, Escherichia coli
Procedure, shortened: as §1

[4] = tested on: P. aeruginosa; experiment: microbe, parasite or virus in culture; format: cell-based, Pseudomonas aeruginosa
Procedure, shortened: as §1

[5] = tested on: MDRPA 2002; format: cell-based, Pseudomonas aeruginosa
Procedure, shortened: as §1

[6] = tested on: MDRPA 2003; format: cell-based, Pseudomonas aeruginosa
Procedure, shortened: as §1

[7] = tested on: MDRAB 12036; format: cell-based, Acinetobacter baumannii
Procedure, shortened: as §1

[8] = tested on: MDRST 8007; experiment: Minimal inhibitory concentration (MIC), single agent; format: cell-based, Salmonella typhimurium; conditions: agent alone
Procedure, shortened: as §1

[9] = tested on: MDRST 8009; format: cell-based, Salmonella typhimurium; conditions: agent alone
Procedure, shortened: as §1

[10] = tested on: B. subtilis; experiment: microbe, parasite or virus in culture; format: cell-based, Bacillus subtilis
Procedure, shortened: as §1

[11] = tested on: S. epidermidis; experiment: microbe, parasite or virus in culture; format: cell-based, Staphylococcus epidermidis
Procedure, shortened: as §1

[12] = tested on: MRSA 3114; format: cell-based, Staphylococcus aureus; conditions: 3114
Procedure, shortened: as §1

[13] = tested on: MRSA 3126; format: cell-based, Staphylococcus aureus; conditions: 3126
Procedure, shortened: as §1

[14] = tested on: E. coli; experiment: MIC of antibiotic during combined treatment with antimicrobial peptide; format: cell-based, Escherichia coli; conditions: for Antibiotic MIC, Erythromycin / Antibiotic MIC, Linezolid / Antibiotic MIC, Vancomycin: E. coli
Procedure, shortened: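 MIC values for mixed peptide plus antibiotic solutions were measured in MH medium.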

[15] = tested on: MDRAB 12035; experiment: as above; format: cell-based, Acinetobacter baumannii
Procedure, shortened: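 Antibiotic MIC came from antibiotic dilutions added to bacteria (2×10^6 CFU/ml, MH medium) already combined with peptide serially diluted 2:1 from its own MIC. Swapping the roles of the two agents gave the peptide MIC.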

[16] = peptide treatment concentration 1 μg/ml
[17] = peptide treatment concentration 2 μg/ml
[18] = peptide treatment concentration 4 μg/ml
[19] = peptide treatment concentration 6 μg/ml

CC[C@H](C)[C@H](NC(=O)[C@H](CCCCN)NC(=O)[C@H](Cc1c[nH]c2ccccc12)NC(=O)[C@@H](N)CCCNC(=N)N)C(=O)N[C@@H](Cc1ccccc1)C(=O)N[C@@H](CCCCN)C(=O)N[C@@H](CCCCN)C(=O)N[C@H](C(=O)N[C@H](CC(C)C)C(=O)N[C@@H](CCCCN)C(=O)N[C@@H](CC(C)C)C(=O)N[C@@H](CC(C)C)C(=O)N[C@@H](Cc1c[nH]cn1)C(=O)N[C@@H](CCCCN)C(=O)N[C@@H](C)C(=O)N[C@@H](CCCCN)C(=O)N[C@@H](CCCCN)C(=O)N[C@@H](Cc1c[nH]c2ccccc12)C(N)=O)[C@@H](C)CC [PapMA-22, RWK IFK KIl KLL HKA KKW-NH2] (H-RWKIFKKI[dL]KLLHKAKKW-NH2; N-terminus assumed)
Minimal inhibitory concentration MIC [1]: 32 µg/mL (≈ 13.5 µM) | Minimal inhibitory concentration MIC [2]: 32 µg/mL (≈ 13.5 µM) | Peptide MIC, peptide alone [2]: 32 µg/mL | Minimal inhibitory concentration MIC [3]: 32 µg/mL (≈ 13.5 µM) | Minimal inhibitory concentration MIC [4]: 16 µg/mL (≈ 6.77 µM) | Minimal inhibitory concentration MIC [5]: 32 µg/mL (≈ 13.5 µM) | Minimal inhibitory concentration MIC [6]: 32 µg/mL (≈ 13.5 µM) | Minimal inhibitory concentration MIC [7]: 32 µg/mL (≈ 13.5 µM) | Minimal inhibitory concentration MIC [8]: 32 µg/mL (≈ 13.5 µM) | Minimal inhibitory concentration MIC [9]: 32 µg/mL (≈ 13.5 µM) | Minimal inhibitory concentration MIC [10]: >128 µg/mL | Minimal inhibitory concentration MIC [11]: >128 µg/mL | Minimal inhibitory concentration MIC [12]: >128 µg/mL | Minimal inhibitory concentration MIC [13]: >128 µg/mL | Synergistic effect of antibacterial activity with existing antibiotics compared with PapMA-1 ([14]; E. coli and MDREC1229): level similar to that of the PapMA-1 peptide | Antibiotic MIC, Erythromycin ([14]; erythromycin combined with peptide at 1 μg/ml): 128 µg/mL | Antibiotic MIC, Erythromycin ([14]; erythromycin combined with peptide at 2 μg/ml): 32 µg/mL | Antibiotic MIC, Erythromycin ([14]; erythromycin combined with peptide at 4 μg/ml): 16 µg/mL | Antibiotic MIC, Erythromycin ([14]; erythromycin combined with peptide at 6 μg/ml): 8 µg/mL | Antibiotic MIC, Erythromycin ([14]; erythromycin combined with peptide at 8 μg/ml): 2 µg/mL | Antibiotic MIC, Erythromycin ([14]; erythromycin combined with peptide at 16 μg/ml): 1 µg/mL | Antibiotic MIC, Erythromycin ([14]; erythromycin combined with peptide at 32 μg/ml): 0 µg/mL | Antibiotic MIC, Erythromycin ([14]; erythromycin combined with peptide at 64 μg/ml): 0 µg/mL | Antibiotic MIC, Linezolid ([14]; linezolid combined with peptide at 1 μg/ml): >128 µg/mL | Antibiotic MIC, Linezolid ([14]; linezolid combined with peptide at 2 μg/ml): 128 µg/mL | Antibiotic MIC, Linezolid ([14]; linezolid combined with peptide at 4 μg/ml): 64 µg/mL | Antibiotic MIC, Linezolid ([14]; linezolid combined with peptide at 6 μg/ml): 32 µg/mL | Antibiotic MIC, Linezolid ([14]; linezolid combined with peptide at 8 μg/ml): 32 µg/mL | Antibiotic MIC, Linezolid ([14]; linezolid combined with peptide at 16 μg/ml): 16 µg/mL | Antibiotic MIC, Linezolid ([14]; linezolid combined with peptide at 32 μg/ml): 0 µg/mL | Antibiotic MIC, Linezolid ([14]; linezolid combined with peptide at 64 μg/ml): 0 µg/mL | Antibiotic MIC, Vancomycin ([14]; vancomycin combined with peptide at 1 μg/ml): >128 µg/mL | Antibiotic MIC, Vancomycin ([14]; vancomycin combined with peptide at 2 μg/ml): >128 µg/mL | Antibiotic MIC, Vancomycin ([14]; vancomycin combined with peptide at 4 μg/ml): 128 µg/mL | Antibiotic MIC, Vancomycin ([14]; vancomycin combined with peptide at 6 μg/ml): 64 µg/mL | Antibiotic MIC, Vancomycin ([14]; vancomycin combined with peptide at 8 μg/ml): 32 µg/mL | Antibiotic MIC, Vancomycin ([14]; vancomycin combined with peptide at 16 μg/ml): 16 µg/mL | Antibiotic MIC, Vancomycin ([14]; vancomycin combined with peptide at 32 μg/ml): 0 µg/mL | Antibiotic MIC, Vancomycin ([14]; vancomycin combined with peptide at 64 μg/ml): 0 µg/mL | Erythromycin MIC during combined treatment with peptide [15, 16]: 32 µg/mL | Linezolid MIC during combined treatment with peptide [15, 16]: >128 µg/mL | Vancomycin MIC during combined treatment with peptide [15, 16]: >128 µg/mL | Erythromycin MIC during combined treatment with peptide [15, 17]: 32 µg/mL | Linezolid MIC during combined treatment with peptide [15, 17]: >128 µg/mL | Vancomycin MIC during combined treatment with peptide [15, 17]: >128 µg/mL | Erythromycin MIC during combined treatment with peptide [15, 18]: 16 µg/mL | Linezolid MIC during combined treatment with peptide [15, 18]: 64 µg/mL | Vancomycin MIC during combined treatment with peptide [15, 18]: 128 µg/mL | Erythromycin MIC during combined treatment with peptide [15, 19]: 2 µg/mL | Linezolid MIC during combined treatment with peptide [15, 19]: 16 µg/mL | Vancomycin MIC during combined treatment with peptide [15, 19]: 32 µg/mL
